For the assay, the system named is Alternaria solani. The experiment in a line: Microtest: activity against early blight caused by Alternaria solani (micro titer plate, absorption at 405 nm). Type of assay: cell-based. Particulars: single compound, 7 days after inoculation, 0 = growth as untreated control, 100 = no growth. As for the experimental part: The stock solutions were mixed according to the ratio, pipetted onto a micro titer plate (MTP) and diluted with water to the stated concentrations. A spore suspension of Alternaria solani in an aqueous biomalt or yeast-bactopeptone-glycerine or DOB solution was then added. The plates were placed in a water vapor-saturated chamber at a temperature of 18° C. Using an ab-sorption photometer, the MTPs were measured at 405 nm 7 days after the inoculation. The measured parameters were compared to the growth of the active compound-free control variant (100%) and the fungus-free and active compound-free blank value to determine the relative growth in % of the pathogens in the respective active compounds. These percentages were converted into efficacies. […] The expected efficacies of active compound mixtures were determined using Colby's formula [R. S. Colby, “Calculating synergistic and antagonistic responses of herbicide combinations”, Weeds 15, 20-22 (1967)] and compared with the observed efficacies.

With `N#Cc1ccc(Oc2ccc(C(F)(F)C(O)(Cn3ncnc3S)c3ccc(F)cc3F)nc2)cc1` (stereo not shown) [Compound I, 4-[[6-[2-(2,4-difluorophenyl)-1,1-difluoro-2-hydroxy-3-(5-sulfanyl-1,2,4-triazol-1-yl)propyl]-3-pyridyl]oxy]benzonitrile], the Observed efficacy reads like this: (0.25 ppm) 7; (1 ppm) 8; (4 ppm) 30.

As to `Cc1cccc(-n2nnn(C)c2=O)c1COc1ccn(-c2ccc(Cl)cc2)n1` [Compound II, 1-[2-[[1-(4-chlorophenyl)pyrazol-3-yl]oxymethyl]-3-methyl-phenyl]-4-methyl-tetrazol-5-one, reference compound], the Observed efficacy (0.016 ppm) was found to be 11.

Values taken from patent publication US11998010B2, “Pesticidal mixtures” (BASF SE, priority 2018, dated 2024).
